From patent US20030086974A1, “Odour regulation in hygiene products” (priority 2001, published 2003)

Assays:
Format in all cases: physicochemical
[1] = Toluene inclusion (precipitation of the cyclodextrin-toluene complex); details: 100 mg of sample dissolved in water, 20 μl toluene added to notice precipitation
Method: From 4.7 g β-cyclodextrin (dry), an oxidised cyclodextrin was prepared as described in Example 1, using 10 ml 2.0 M NaOCl solution, 150 mg NaBr and 80 mg 4-acetamido-TEMPO. The ratio acid/aldehyde was derived from the sodium hydroxide consumption and also experimentally determined. According to calculation, 6.3 mmol acid and 6.9 mmol aldehyde were produced. […] The reaction mixture was concentrated in vacuum to about 120 ml. […] Precipitation of the oxidised cyclodextrin-toluene complex started slowly i.e. after 10 minutes it was visible that a precipitate was formed. After 5 hours the process of precipitation formation seemed to be finished.
The same experiment was repeated with an acidified solution (pH 3). Here precipitation started immediately after mixing. The process was complete within one hour.
From 4.7 g β-cyclodextrin (dry) an oxidised cyclodextrin was prepared as described in Example 1, using 5 ml 2.0 M NaOCl solution, 150 mg NaBr and 4-acetamido-TEMPO. The ratio acid/aldehyde was derived from the sodium hydroxide consumption and also experimentally determined. According to calculation 2.2 mmol acid and 5.7 mmol aldehyde were produced. […] The reaction mixture was concentrated in vacuum to about 120 ml. […] Precipitation of the oxidised cyclodextrin-toluene complex started immediately and after one hour the process of precipitation formation appeared to be finished.

[2] = Menthone inclusion (precipitation of the complex); details: 100 mg of sample dissolved in water, 20 μl menthone added to notice precipitation
[3] = Adsorption of phenolphthalein by oxidised β-cyclodextrin (absorption at 553 nm); details: sample 1 mg/ml in sodium carbonate buffer pH 10.3 mixed with 10 μl 0.1% phenolphthalein in ethanol
Method: Five grams of β-cyclodextrin (CAVAMAX® W7 from Wacker-CHEMIE GMBH) on dry weight basis was dissolved in 300 ml of demi-water, and 22.4 ml of a 0.032 M 4-acetamido TEMPO solution was; added. Subsequently, β-cyclodextrin was oxidised by addition of sodium hypochlorite. Batches were prepared with theoretically one, two and three anhydroglucose units fully oxidised per cyclodextrin molecule (average) per β-cyclodextrin molecule using sodium hypochlorite. The pH was kept constant during reaction by addition of 0.5 M NaOH, controlled by a pH stat (Metrohm). After completion of the oxidation, the aldehyde groups were reduced with sodium borohydride. The respective batches were concentrated in a rotary evaporator, and subsequently freeze-dried. The freeze-dried material was washed in a methanol/water mixture to remove salts and 4-acetamido-TEMPO. The batches were finally washed with acetone and dried in an oven at 50° C. The inclusion properties were investigated (see Table 1).

Toluene inclusion ([1]; Table 1): Yes
Toluene inclusion ([1]; Table 2): Yes
Menthone inclusion ([2]; Table 1): Yes
Menthone inclusion ([2]; Table 2): Yes
Phenolphthalein Absorption (at γ = 553 nm) ([3]; Table 1): 0.025
Phenolphthalein Absorption (at γ = 553 nm) ([3]; Table 2, solution without cyclodextrin Abs. = 0.65): 0.025
Compound: OC[C@H]1O[C@@H]2O[C@H]3[C@H](O)[C@@H](O)[C@@H](O[C@H]4[C@H](O)[C@@H](O)[C@@H](O[C@H]5[C@H](O)[C@@H](O)[C@@H](O[C@H]6[C@H](O)[C@@H](O)[C@@H](O[C@H]7[C@H](O)[C@@H](O)[C@@H](O[C@H]8[C@H](O)[C@@H](O)[C@@H](O[C@H]1[C@H](O)[C@H]2O)O[C@@H]8CO)O[C@@H]7CO)O[C@@H]6CO)O[C@@H]5CO)O[C@@H]4CO)O[C@@H]3CO [Example 0, β-cyclodextrin]
